Assay results as given in ChEMBL document CHEMBL3124779, “Discovery of ABT-267, a pan-genotypic inhibitor of HCV NS5A” (J Med Chem, 2014).

Assays:
[1] = Lipophilicity, log D of the compound at pH 7.4 by HPLC analysis; format: physicochemical; settings: buffer
Hepatitis C virus [2] = assay: Antiviral activity against HCV4a infected in human HuH7 cells assessed as inhibition of viral replication after 4 days by luciferase reporter gene assay; format: functional, organism-based, Hepacivirus hominis; settings: genotype 4a, Huh-7, 96 h
Hepatitis C virus [3] = assay: Ratio of EC50 for HCV1b Con1 infected in human HuH7 cells in presence of 40% human plasma to EC50 for HCV1b Con1 infected in human HuH7 cells in absence of 40% human plasma; format: functional, Hepacivirus hominis, isolate Con1, Huh-7
Hepatitis C virus [4] = assay: Antiviral activity against HCV1a harboring NS5A Y93H mutant infected in human HuH7 cells assessed as inhibition of viral replication after 4 days by luciferase reporter gene assay; format: functional, Hepacivirus hominis, subtype 1a, Huh-7
Hepatitis C virus [5] = assay: Antiviral activity against HCV1b harboring NS5A Y93H mutant infected in human HuH7 cells assessed as inhibition of viral replication after 4 days by luciferase reporter gene assay; format: functional, Hepacivirus hominis, genotype 1b, Huh-7
Homo sapiens [6] = species on record: Homo sapiens; assay: Toxicity in HCV1 infected patient assessed as adverse event at 5 to 200 mg qd for 3 days; format: organism-based; settings: in vivo, 72 h
Hepatitis C virus [7] = assay: Antiviral activity against HCV6a infected in human HuH7 cells assessed as inhibition of viral replication after 4 days by luciferase reporter gene assay; format: functional, organism-based, Hepacivirus hominis; settings: genotype 6a, Huh-7, 96 h
[8] = Half life in dog at 1 mg/kg, iv; format: ADME, organism-based, Canis lupus familiaris; design: dose 1 mg/kg, route intravenous; settings: in vivo
Hepatitis C virus [9] = assay: Antiviral activity against HCV1b Con1 infected in human HuH7 cells assessed as inhibition of viral replication after 4 days by luciferase reporter gene assay; format: functional, organism-based, Hepacivirus hominis; settings: isolate Con1, Huh-7, 96 h
Hepatitis C virus [10] = assay: Resistant ratio of EC50 for wild type HCV1b to EC50 for HCV1b harboring NS5A R30Q and Y93H mutant infected in human HuH7 cells; format: functional, Hepacivirus hominis, genotype 1b, Huh-7
Hepatitis C virus [11] = assay: Resistant ratio of EC50 for wild type HCV1b to EC50 for HCV1b harboring NS5A L28M and Y93H mutant infected in human HuH7 cells; format: functional, Hepacivirus hominis, genotype 1b, Huh-7
[12] = Half life in HCV1 infected patient at 5 to 200 mg qd for 3 days; format: ADME, organism-based; settings: human, in vivo
[13] = Cmax in monkey at 2.5 mg/kg, po; format: ADME, organism-based, Macaca mulatta; design: dose 2.5 mg/kg, route oral; settings: rhesus monkey, in vivo
Hepatitis C virus [14] = assay: Ratio of EC50 for HCV1a H77 infected in human HuH7 cells in presence of 40% human plasma to EC50 for HCV1a H77 infected in human HuH7 cells in absence of 40% human plasma; format: functional, Hepacivirus hominis, genotype 1a H77, Huh-7
Hepatitis C virus [15] = assay: Resistant ratio of EC50 for wild type HCV1b to EC50 for HCV1b harboring NS5A L31F mutant infected in human HuH7 cells; format: functional, Hepacivirus hominis, genotype 1b, Huh-7
Hepatitis C virus [16] = assay: Resistant ratio of EC50 for wild type HCV1b to EC50 for HCV1b harboring NS5A L31F and Y93H mutant infected in human HuH7 cells; format: functional, Hepacivirus hominis, genotype 1b, Huh-7
Homo sapiens [17] = species on record: Homo sapiens; assay: Toxicity in HCV1 infected patient assessed as laboratory abnormalities at 5 to 200 mg qd for 3 days; format: organism-based; settings: in vivo, 72 h
Hepatitis C virus [18] = assay: Resistant ratio of EC50 for wild type HCV1a to EC50 for HCV1a harboring NS5A Y93H mutant infected in human HuH7 cells; format: functional, Hepacivirus hominis, subtype 1a, Huh-7
[19] = AUC in rat at 3 mg/kg, po; format: ADME, organism-based; design: dose 3 mg/kg, route oral; settings: plasma
Hepatitis C virus [20] = assay: Antiviral activity against HCV2b infected in human HuH7 cells assessed as inhibition of viral replication after 4 days by luciferase reporter gene assay; format: functional, organism-based, Hepacivirus hominis; settings: genotype 2b, Huh-7, 96 h
[21] = Oral bioavailability in rat at 3 mg/kg; format: ADME, organism-based; settings: in vivo
Hepatitis C virus [22] = assay: Antiviral activity against HCV1a harboring NS5A M28V mutant infected in human HuH7 cells assessed as inhibition of viral replication after 4 days by luciferase reporter gene assay; format: functional, Hepacivirus hominis, subtype 1a, Huh-7
[23] = Tmax in dog at 2.5 mg/kg, po; format: ADME, organism-based, Canis lupus familiaris; design: dose 2.5 mg/kg, route oral; settings: in vivo
Hepatitis C virus [24] = assay: Antiviral activity against HCV1b harboring NS5A L31M and Y93H mutant infected in human HuH7 cells assessed as inhibition of viral replication after 4 days by luciferase reporter gene assay; format: functional, Hepacivirus hominis, genotype 1b, Huh-7
Hepatitis C virus [25] = assay: Antiviral activity against HCV2a infected in human HuH7 cells assessed as inhibition of viral replication after 4 days by luciferase reporter gene assay; format: functional, organism-based, Hepacivirus hominis; settings: genotype 2a, Huh-7, 96 h
[26] = Volume of distribution at steady state in monkey at 1 mg/kg, iv; format: ADME, organism-based, Macaca mulatta; design: dose 1 mg/kg, route intravenous; settings: rhesus monkey, in vivo, read-out: Vdss
[27] = Clearance in monkey at 1 mg/kg, iv; format: ADME, organism-based, Macaca mulatta; design: dose 1 mg/kg, route intravenous; settings: rhesus monkey, in vivo
Hepatitis C virus [28] = assay: Resistant ratio of EC50 for wild type HCV1a to EC50 for HCV1a harboring NS5A Y93C mutant infected in human HuH7 cells; format: functional, Hepacivirus hominis, subtype 1a, Huh-7
Hepatitis C virus [29] = assay: Resistant ratio of EC50 for wild type HCV1b to EC50 for HCV1b harboring NS5A L31M and Y93H mutant infected in human HuH7 cells; format: functional, Hepacivirus hominis, genotype 1b, Huh-7
Hepatitis C virus [30] = assay: Antiviral activity against HCV1a H77 infected in human HuH7 cells assessed as inhibition of viral replication after 4 days by luciferase reporter gene assay in presence of 40% human plasma; format: functional, organism-based, Hepacivirus hominis; settings: genotype 1a H77, Huh-7, Plasma, 96 h

In the case of COC(=O)N[C@H](C(=O)N1CCC[C@H]1C(=O)Nc1ccc([C@@H]2CC[C@@H](c3ccc(NC(=O)[C@@H]4CCCN4C(=O)[C@@H](NC(=O)OC)C(C)C)cc3)N2c2ccc(C(C)(C)C)cc2)cc1)C(C)C [OMBITASVIR], the logD [1] is reported as 5.4, the EC50 (Hepatitis C virus [2]) is reported as 1.71 pM and the “Ratio EC50” value (Hepatitis C virus [3]) is reported as 11. The Efficacy (Hepatitis C virus [4]) was 18%, the Efficacy (Hepatitis C virus [5]) was 73% and the Activity (Homo sapiens [6]) was “Non-toxic”. For the same molecule, the EC50 (Hepatitis C virus [7]) was 415 pM, the half-life [8] was 7.9 h and the EC50 (Hepatitis C virus [9]) was 5 pM. The “Ratio EC50” value (Hepatitis C virus [10]) was 284, the “Ratio EC50” value (Hepatitis C virus [11]) was 415 and the half-life [12] was 25 h. For the same molecule, the Cmax [13] was 290 ng/mL, the “Ratio EC50” value (Hepatitis C virus [14]) was 13 and the “Ratio EC50” value (Hepatitis C virus [15]) was 10. For the same molecule, the “Ratio EC50” value (Hepatitis C virus [16]) was 10270, the Activity (Homo sapiens [17]) was “Non-toxic” and the “Ratio EC50” value (Hepatitis C virus [18]) was 41382. For the same molecule, the AUC [19] was 290 ng·h/mL, the EC50 (Hepatitis C virus [20]) was 4.3 pM and the bioavailability [21] was 6.2%. It also gave an Efficacy (Hepatitis C virus [22]) of 87%, a Tmax [23] of 3.3 h and an Efficacy (Hepatitis C virus [24]) of 11%. The EC50 (Hepatitis C virus [25]) was 12.4 pM, the Vd [26] was 1.5 L/kg and the clearance [27] was 6.33 mL/min/kg. The “Ratio EC50” value (Hepatitis C virus [28]) was 1675, the “Ratio EC50” value (Hepatitis C virus [29]) was 142 and the EC50 (Hepatitis C virus [30]) was 186 pM.
